Laboratory results published in US20230192598A1, “NOVEL MODIFIED TETRACYCLINES FOR TREATMENT OF ALCOHOL USE DISORDER, PAIN AND OTHER DISORDERS INVOLVING POTENTIAL INFLAMMATORY PROCESSES” (Texas Tech University System, priority 2020, published 2023).
Entries after “also recorded” stand apart in the source; their conditions may differ.

Columns and labels:
[1] = system: E. coli cell culture; experiment: Antibacterial efficacy of CMM ether analogs (ZOI and CFU assays, Example 2); format: cell-based; conditions: for Anti-microbial action: Table 3
Source text: (§1) Purity and molecular formula verification of the CMM analogs were done using High Performance Liquid Chromatography (HPLC) Nuclear Magnetic Resonance spectroscopy (NMR) and Liquid Chromatography-Mass Spectrometry (LC-MS) after initial identification via Thin-layer Chromatography (TLC). Zone of inhibition (ZOI) and colony forming unit (CFU) assays were used to assess the antibacterial efficacy of our CMM analogs in E. coli cell culture. Drinking-in-the-Dark (DID) and Two-Bottle Choice (2BC) procedures were utilized in both female and male C57BL/6J mice to evaluate ethanol and water consumption. […] Butyl ether minocycline may be used for an AUD treatment.

[2] = system: C57BL/6J mice; experiment: Drinking in the Dark (DID) model of AUD, ethanol consumption; format: in vivo; conditions: for % DID: Table 3, ↓ = decrease of alcohol consumption; for reduction of ethanol consumption: by gavage, compared with i.p.
Source text: FIGS. 5A to 5C show, 5A) CMMs reduced acute ethanol consumption in the Drinking in the Dark model of AUD. MINO, DeDiAc, and TRI reduced ethanol consumption by over 50% by intraperitoneal injection (Left). […] 5B) Dose response curve for DeDIAc in female mice by gavage. 5C) Dose response curve for DeDIAc in male mice by gavage. MINO=minocycline, BeMAc=Butyl ether monoacetate minocycline, DeDiAc=De amino di acetyl minocycline, TRI=Tri acetyl minocycline. *p<0.05 compared to controls.
as §1

[3] = cited from earlier work
[4] = system: AUD traits; conditions: seven tetracyclines tested (Syapin et al. 2016); cited from earlier work
[5] = system: E. coli; experiment: Colony forming unit assay, antibacterial; format: cell-based; conditions: 24 hour cell culture
Source text: (§2) MINO=minocycline, BeMAc=Butyl ether monoacetate minocycline, DeDiAc=De amino di acetyl minocycline, TRI=Tri acetyl minocycline.
as §1

[6] = system: E. coli; experiment: Zone of inhibition assay; format: cell-based; conditions: 24 hour cell culture
Source text: as §2, §1

[7] = butyl ether minocycline 100 mg/kg, i.p.

Which “antibiotic / antimicrobial activity (in words)” value ([1]; Example 2, compared to minocycline) does the source give for `CCCCOc1ccc(N(C)C)c2c1C(=O)C1=C(O)C3(O)C(=O)C(C(N)=O)=C(O)C(N(C)C)C3CC1C2.Cl` (stereo not drawn) [Butyl Ether Minocycline HCl, 10-Butoxy-4,7-bis-dimethylamino-3,12,12a-trihydroxy-1,11-dioxo-1,4,4a,5,5a,6,11,12a-octahydro-naphthacene-2-carboxylic acid amide hydrochloride] here?
The value was “lost antibiotic activity”.

And the Anti-microbial action [1]?
The Anti-microbial action was “ND 64 mg/ml”.

And the “alcohol consumption (in words)” value ([2]; Example 2, butyl ether minocycline 100 mg/kg, i.p., hydrochloride)?
Its value is “significantly reduced alcohol consumption; also recorded: greatest reduction in alcohol consumption”.

And the “% DID” value [2, 7]?
The value was 85%.

Which LogD [3] does the source give for `CN(C)[C@@H]1C(O)=C(C(N)=O)C(=O)[C@@]2(O)C(O)=C3C(=O)c4c(O)ccc(Cl)c4[C@@H](O)[C@H]3C[C@@H]12` [Demeclocycline] here?
Its LogD is −3.40.

And the LogP [3]?
The LogP was −1.07.

Which “effectiveness against AUD traits” value [4] does the source give for `C[C@H]1c2cccc(O)c2C(=O)C2=C(O)[C@]3(O)C(=O)C(C(N)=O)=C(O)[C@@H](N(C)C)[C@@H]3[C@@H](O)[C@@H]21` [Doxycycline] here?
The value was “effective”.

What about the LogD [3] of the same compound?
The LogD was −3.29.

And the LogP [3]?
The LogP was −0.54.

What does the source list for `CCOc1ccc(N(C)C)c2c1C(=O)C1=C(O)C3(O)C(=O)C(C(N)=O)=C(O)C(N(C)C)C3CC1C2.Cl` (stereo not drawn) [Ethyl Ether Minocycline HCl, 4,7-Bis-dimethylamino-10-ethoxy-3,12,12a-trihydroxy-1,11-dioxo-1,4,4a,5,5a,6,11,12a-octahydro-naphthacene-2-carboxylic acid amide hydrochloride]?
Anti-microbial action [1]: >2 mg/mL; % DID [2, 7]: 50%

Which results are given for `COc1ccc(N(C)C)c2c1C(=O)C1=C(O)C3(O)C(=O)C(C(N)=O)=C(O)C(N(C)C)C3CC1C2.Cl` (stereo not drawn) [Methyl Ether Minocycline HCl, 4,7-Bis-dimethylamino-3,12,12a-trihydroxy-10-methoxy-1,11-dioxo-1,4,4a,5,5a,6,11,12a-octahydro-naphthacene-2-carboxylic acid amide hydrochloride]?
Anti-microbial action [1]: >16 mg/mL; % DID [2, 7]: 40%

With `CN(C)c1ccc(O)c2c1CC1CC3C(N(C)C)C(O)=C(C(N)=O)C(=O)C3(O)C(O)=C1C2=O.Cl` (stereo not drawn) [Minocycline HCl, 4,7-Bis-dimethylamino-3,10,12,12a-tetrahydroxy-1,11-dioxo-1,4,4a,5,5a,6,11,12a-octahydro-naphthacene-2-carboxylic acid amide hydrochloride, reference compound] as the compound, how does the Anti-microbial action [1] read?
Its Anti-microbial action is over 0.125 mg/mL.

What about the “% DID” value [2, 7] of the same compound?
The value was 75%.

For `CN(C)c1ccc(O)c2c1C[C@H]1C[C@H]3[C@H](N(C)C)C(=O)C(C(N)=O)=C(O)[C@@]3(O)C(=O)C1=C2O` [Minocycline, reference compound], which “effectiveness against AUD traits” value [4] is on record?
Its value is “effective”.

What about the “reduction of ethanol consumption” value ([2]; Drinking in the Dark) of the same compound?
The value was “reduced ethanol consumption to a lesser degree”.

For `CN(C)[C@@H]1C(O)=C(C(N)=O)C(=O)[C@@]2(O)C(O)=C3C(=O)c4c(O)cccc4[C@@](C)(O)[C@H]3[C@H](O)[C@@H]12` [Oxytetracycline], which LogD [3] is on record?
The LogD was −4.25.

And the LogP [3]?
The LogP was −1.5.

For `CCCOc1ccc(N(C)C)c2c1C(=O)C1=C(O)C3(O)C(=O)C(C(N)=O)=C(O)C(N(C)C)C3CC1C2.Cl` (stereo not drawn) [Propyl Ether Minocycline HCl, 4,7-Bis-dimethylamino-3,12,12a-trihydroxy-1,11-dioxo-10-propoxy-1,4,4a,5,5a,6,11,12a-octahydro-naphthacene-2-carboxylic acid amide hydrochloride], which Anti-microbial action [1] is on record?
Its Anti-microbial action is over 4 mg/mL.

What about the “% DID” value [2, 7] of the same compound?
The value was 50%.

For `CN(C)c1cc(NC(=O)CNC(C)(C)C)c(O)c2c1C[C@H]1C[C@H]3[C@H](N(C)C)C(O)=C(C(N)=O)C(=O)[C@@]3(O)C(O)=C1C2=O` [Tigecycline], which “effectiveness against AUD traits” value [4] is on record?
Its value is “effective”.

What about the LogD [3] of the same compound?
Its LogD is −2.73.

And the LogP [3]?
Its LogP is −1.30.

With “Butyl ether monoacetate minocycline [BeMAc]” as the compound, how does the “reduction of ethanol consumption” value ([2]; Drinking in the Dark) read?
Its value is “reduced ethanol consumption to a lesser degree”.

Which results are given for De amino di acetyl minocycline [DeDiAc]?
antibacterial action, colony forming units [5]: loss of antibiotic activity; reduction of ethanol consumption ([2]; Drinking in the Dark): reduced ethanol consumption to a lesser degree; ethanol consumption (in words) ([2]; Example 1, Drinking in the Dark, intraperitoneal and oral administration): significantly reduced ethanol consumption; antibacterial action, zone of inhibition [6]: loss of antibiotic activity

For Tri acetyl minocycline, which “reduction of ethanol consumption” value ([2]; Drinking in the Dark) is on record?
The value was “reduced ethanol consumption to a lesser degree”.
